Assay: xn = mol fraction of the nth substance listed
Conditions: 101 kPa, Liquid

CC(C)CCl [1-chloro-2-methylpropane] + COC(C)(C)C
viscosity [mPa·s]
Conditions	283.15 K	288.15 K	293.15 K	298.15 K	303.15 K	308.15 K	313.15 K
x1 = 0.0492	0.3948	0.369	0.3527	0.3369	0.3194	0.3035	0.2885
x1 = 0.0996	0.4002	0.3742	0.3573	0.3412	0.3237	0.3076	0.2926
x1 = 0.1979	0.4107	0.3844	0.3664	0.3495	0.3322	0.316	0.3005
x1 = 0.3023	0.4224	0.3957	0.3764	0.3587	0.3412	0.3248	0.3091
x1 = 0.4027	0.4338	0.4065	0.3861	0.3676	0.3502	0.3335	0.3174
x1 = 0.504	0.4458	0.4178	0.396	0.3768	0.3594	0.3424	0.3261
x1 = 0.5971	0.4574	0.4287	0.4057	0.3856	0.3681	0.351	0.3341
x1 = 0.7036	0.4714	0.442	0.4173	0.3962	0.3786	0.3611	0.3437
x1 = 0.8003	0.4848	0.4547	0.4286	0.4063	0.3886	0.3707	0.3527
x1 = 0.9031	0.5	0.4689	0.4413	0.4179	0.3998	0.3813	0.3626
x1 = 0.9522	0.5078	0.4763	0.4478	0.4238	0.4054	0.3868	0.3676
x1 = 1	0.5155	0.4833	0.454	0.4296	0.4112	0.3921	0.3726

CCCCOCC [butyl ethyl ether] + CCC(C)Cl
viscosity [mPa·s]
Conditions	283.15 K	288.15 K	293.15 K	298.15 K	303.15 K	308.15 K	313.15 K
x2 = 0	0.4796	0.4509	0.4242	0.399	0.3756	0.356	0.3416
x2 = 0.0525	0.4785	0.4498	0.4233	0.3983	0.3749	0.3552	0.3404
x2 = 0.0974	0.4776	0.4489	0.4223	0.3974	0.374	0.3541	0.3392
x2 = 0.2001	0.475	0.4462	0.4203	0.3963	0.3732	0.3533	0.3379
x2 = 0.3027	0.4724	0.4436	0.4183	0.395	0.3724	0.3529	0.3372
x2 = 0.4	0.4697	0.4409	0.4165	0.394	0.3718	0.3523	0.3364
x2 = 0.5248	0.4665	0.4384	0.4148	0.3933	0.3716	0.3523	0.3361
x2 = 0.6016	0.4647	0.4368	0.4139	0.393	0.3716	0.3523	0.336
x2 = 0.7006	0.463	0.4353	0.413	0.393	0.3721	0.353	0.3363
x2 = 0.7993	0.462	0.4346	0.4132	0.3939	0.3735	0.3545	0.3376
x2 = 0.8997	0.4619	0.4349	0.4143	0.3959	0.3759	0.3569	0.3396
x2 = 0.9502	0.4623	0.4356	0.4152	0.3972	0.3775	0.3587	0.3414

CCCCCl [1-chlorobutane] + COC(C)(C)C
viscosity [mPa·s]
Conditions	283.15 K	288.15 K	293.15 K	298.15 K	303.15 K	308.15 K	313.15 K
x1 = 0.0499	0.395	0.369	0.3525	0.3367	0.3193	0.3033	0.288
x1 = 0.1002	0.4003	0.3741	0.3571	0.3409	0.3234	0.3074	0.2915
x1 = 0.2011	0.411	0.3844	0.3663	0.3494	0.332	0.3159	0.2991
x1 = 0.302	0.4224	0.3952	0.3758	0.3582	0.3408	0.3247	0.3068
x1 = 0.4007	0.4339	0.4063	0.3855	0.367	0.3498	0.3335	0.3146
x1 = 0.5026	0.4461	0.418	0.3959	0.3765	0.3592	0.3428	0.3229
x1 = 0.6029	0.4581	0.4295	0.4063	0.386	0.3686	0.3519	0.3312
x1 = 0.693	0.4686	0.4396	0.4155	0.3945	0.377	0.3605	0.3389
x1 = 0.8064	0.481	0.4518	0.4266	0.4048	0.3876	0.371	0.3482
x1 = 0.904	0.4912	0.4616	0.4355	0.4134	0.3966	0.3799	0.3563
x1 = 0.9509	0.4951	0.4658	0.4392	0.4173	0.4007	0.3841	0.3601
x1 = 1	0.4993	0.4701	0.4433	0.4214	0.405	0.3885	0.3642

CCCCOCC [butyl ethyl ether] + CCCCCl
viscosity [mPa·s]
Conditions	283.15 K	288.15 K	293.15 K	298.15 K	303.15 K	308.15 K	313.15 K
x2 = 0	0.4796	0.4509	0.4242	0.399	0.3756	0.356	0.3416
x2 = 0.0515	0.4815	0.4523	0.4254	0.4002	0.3771	0.3576	0.3426
x2 = 0.1016	0.4832	0.4536	0.4265	0.4014	0.3785	0.359	0.3435
x2 = 0.2008	0.4862	0.4561	0.4286	0.4036	0.3812	0.3618	0.3452
x2 = 0.3003	0.489	0.4583	0.4307	0.4058	0.3839	0.365	0.3473
x2 = 0.4002	0.4914	0.4604	0.4326	0.408	0.3868	0.368	0.3493
x2 = 0.5014	0.4934	0.4623	0.4345	0.4102	0.3895	0.3712	0.3514
x2 = 0.6023	0.4951	0.4641	0.4364	0.4123	0.3925	0.3744	0.3537
x2 = 0.7003	0.4965	0.4657	0.4381	0.4145	0.3954	0.3777	0.3559
x2 = 0.8004	0.4977	0.4672	0.4398	0.4167	0.3985	0.381	0.3585
x2 = 0.9006	0.4986	0.4687	0.4416	0.4191	0.4016	0.3846	0.3612
x2 = 0.9502	0.4989	0.4694	0.4424	0.4201	0.4033	0.3866	0.3627

CCCCOCC [butyl ethyl ether] + CC(C)CCl
viscosity [mPa·s]
Conditions	283.15 K	288.15 K	293.15 K	298.15 K	303.15 K	308.15 K	313.15 K
x2 = 0	0.4796	0.4509	0.4242	0.399	0.3756	0.356	0.3416
x2 = 0.0493	0.4797	0.4512	0.4246	0.3993	0.3762	0.3569	0.3423
x2 = 0.1004	0.4799	0.4514	0.4248	0.3998	0.3771	0.3578	0.3432
x2 = 0.2001	0.4812	0.4526	0.4259	0.4012	0.3793	0.3603	0.3455
x2 = 0.3012	0.4836	0.4548	0.4279	0.4035	0.3822	0.3634	0.3481
x2 = 0.4021	0.4866	0.4574	0.4305	0.4063	0.3855	0.3667	0.3511
x2 = 0.5025	0.4903	0.4609	0.4337	0.4097	0.3893	0.3704	0.3543
x2 = 0.6007	0.4946	0.4649	0.4374	0.4133	0.3933	0.3745	0.3576
x2 = 0.6993	0.4994	0.4692	0.4412	0.4171	0.3975	0.3786	0.3612
x2 = 0.7994	0.5044	0.4736	0.4453	0.4211	0.4021	0.3832	0.3649
x2 = 0.8993	0.5099	0.4783	0.4496	0.4253	0.4065	0.3875	0.3687
x2 = 0.9491	0.5126	0.4808	0.4518	0.4274	0.4089	0.3898	0.3706

Reference: the NIST ThermoML archive (doi:10.1007/s10765-012-1371-1)
